Measured values: patent publication US7129275B2, “Compositions for treating acne comprising phytandiol amine” (Coreana Cosmetics Co., Ltd., priority 2001, dated 2006)

How the values were obtained:
Experiment in all cases: Minimum inhibitory concentration on reinforced clostridial agar
Conditions in all cases: 3 days at 35° C., anaerobic, complete growth inhibition
P. avidum ATCC 25577 = assay type: cell-based, Propionibacterium avidum
Experimental: (§1) To evaluate an antimicrobial activity of the phytandiol amine of this invention against acne pathogen, the minimum inhibitory concentration (hereinafter referred to as “MIC”) of the samples shown in Table 1 was measured as follows: The sample to be tested was added to reinforced clostridial agar medium (available from Difco Co.) in the amount of 0.001–0.1%, followed by solidification of the medium. The suspension of acne pathogenic bacteria found in Table 1 was streaked on the surface of the medium and the medium was incubated for 3 days at 35° C. under anaerobic condition.

P. acnes ATCC 6919 = assay type: cell-based, Propionibacterium acnes
Experimental: as §1

P. acne ATCC 11828 = assay type: cell-based, Propionibacterium acnes
Experimental: as §1

MIC (P. avidum ATCC 25577) | MIC (P. acnes ATCC 6919) | MIC (P. acne ATCC 11828) | SMILES
0.1% | 0.1% | 0.1% | O=C(OOC(=O)c1ccccc1)c1ccccc1 [Benzoyl peroxide]
0.02% | 0.02% | 0.02% | CC[C@H]1OC(=O)[C@H](C)[C@@H](O[C@H]2C[C@@](C)(OC)[C@@H](O)[C@H](C)O2)[C@H](C)[C@@H](O[C@@H]2O[C@H](C)C[C@H](N(C)C)[C@H]2O)[C@](C)(O)C[C@@H](C)C(=O)[C@H](C)[C@@H](O)[C@]1(C)O [Erythromycin]
